Results reported in a melting point compilation (Tetko et al.; mined from patent text by program, amines drawn as free bases though some values may be those of a salt).

Structure (SMILES)	melting point [°C]
OCC1OC(n2cnc3c(NCC(c4ccc(F)cc4)c4ccc(F)cc4)ncnc32)C(O)C1O (configuration not stated)	75 to 80
N#CCCn1nc2ccc(Cl)nn2c1=O	166 to 168
COc1ccc(-c2cnc3cc4cnn(CCOC(C)=O)c4cc3n2)cc1F	164 to 166
OC/C(=C(\CO)c1ccccc1)c1ccccc1	79
CCOC(=O)C=Cc1ccc(C=CC(=O)OCC)c2ccccc12	90 to 91
CCc1nnc2c(N)nc3ccccc3n12	284 to 288
COc1ccc2c(-c3ccccc3)c(C(=O)c3ccccc3OC)sc2c1	111 to 112
Cc1oc(-c2ccc(Cl)cc2)cc1C(=O)Nc1cc(Cl)ccc1-c1nnn[nH]1	247 to 255
CC(C)Cn1c(=O)n(C)c(=O)c2c(SCCO)n(Cc3cccc4ccccc34)cc21	138 to 141
CCNC(=S)NS(=O)(=O)c1cc(CCNC(=O)C=Cc2ccc(OC)cc2OC)ccc1OCCOC	146 to 148
CC(C)c1cccc(NC(=O)c2ccccc2C(F)(F)F)c1	87.5 to 88.5
Cc1ccc2c(c1)C(c1ccccc1)=NCc1nnc(CN(C)C)n1-2	154 to 156
NC(=O)c1c(N)oc2ccccc2c1=O	264 to 266
O=c1[nH]c2ccccc2cc1-c1csc(N(Cc2ccccc2)S(=O)(=O)c2ccccc2)n1	228 to 232
O=C1NC(CC(=O)C2CC2)c2cccn2-c2sccc21 (configuration not stated)	200
Cc1cc([N+](=O)[O-])cc2c1S(=O)C=N2 (configuration not stated)	> 250
O=C(N[C@H]1CCN(C(=O)c2cc(Cl)cc(Cl)c2)[C@H](Cc2ccccc2)C1)c1cc2ccccc2[nH]1 (relative stereo)	254
CONS(=O)(=O)c1cccc(Cl)c1	72 to 74.5
Cc1oc(-c2ccccc2)nc1CCOc1ccc(C[C@H](NC(=O)C=Cc2ccccc2)C(=O)O)cc1	207 to 209
COc1c(Cl)ccc(-c2cc(N)c(Cl)c(CNCC(=O)O)n2)c1F	189 to 191
O=C(c1cccs1)C1CCN(CCc2ccccc2)CC1	77 to 79

Structure (SMILES)	melting point [°C]
Clc1cccc2c(CN3CC=C(CCc4ccccc4)CC3)n[nH]c12	171 to 172
COc1cccc(COC(=O)c2ncn3c2[C@@H]2CCCN2C(=O)c2c(Cl)cccc2-3)c1	131 to 133
CC(=O)c1c(-c2ccc(OCCBr)c3ccccc23)oc2ccccc12	115 to 117
COc1cc(/C=C/CO)ccc1OCc1nc(-c2ccco2)oc1C	128 to 129
O=CCCNC(=O)c1ccc[nH]1	88 to 90
O=S1CCNCc2c(Cl)cccc21 (configuration not stated)	125 to 126
O=C1Nc2nncn2CC1c1ccccc1 (configuration not stated)	184 to 186
O=C1C(=CO)c2ccccc2N1c1cccc(Cl)c1	175 to 178
COc1cccc2c(=O)c3c(O)cc(OCC(O)CO)cc3oc12 (configuration not stated)	189
FC(F)Oc1cccc2cnsc12	58 to 59
Cc1ccc2nc(SCc3ccccn3)n(-c3ccccc3)c(=O)c2c1	167 to 169
CN(C)C1CCC2c3ccccc3Sc3ccc(C(F)(F)F)cc3N2C1 (configuration not stated)	118 to 122
CC(=O)Nc1c(C(=O)c2ccccc2)[nH]c2ccc(F)cc12	80 to 82
N#CC=Cc1ccc(Br)cc1	106
CCCCC(=NNC(=O)OC(C)(C)C)c1ccncc1	156
CC(C)=NN=C(N)Nc1c(Cl)cccc1Cl	205 to 210
CC(C)(C)OC(=O)N1C(=O)C2(COc3cc4c(cc32)OCCO4)c2ccccc21 (configuration not stated)	171 to 172
COc1ccc2c(c1)n(C1CCCCC1)c(=O)n2S(=O)(=O)c1ccc([N+](=O)[O-])cc1	160
c1ccc(COc2ccccc2OCCNCCCNc2ncccn2)cc1	90.1
Cc1ccc2c(Cl)cc(S(=O)(=O)F)c(O)c2n1	196 to 198
O=C1C2=C(C(=O)c3ccccc31)C(=O)C1CC(Cl)=CCC1C2=O (configuration not stated)	221 to 222
